# Patent publication US20090311237A1, “Combination therapy using a soluble hyaluronidase and a bisphosphonate” (priority 2008, published 2009)
# Where “and” joins values, the source holds several entries; their conditions need not be identical. Equal values may be shown once.
# Test: Phase 1 Stage 1 clinical pharmacokinetics of SC ZA co-administered with rHuPH20
# Assay type: in vivo, human
# Design: key to Mean Conc. / Median Conc.: BLQ = blow limit for quantitation
# Settings: serum; for Zoledronic Acid Concentration: individual subjects; for Mean Conc. / Median Conc.: n=3
# Description: A pharmacokinetic study of zoledronic acid (ZA) co-administered with rHuPH20 in human subjects was conducted. The primary objective of the study was to determine the bioavailability of zoledronic acid dosed via subcutaneous (SC) co-administration with human recombinant hyaluronidase PH20 (rHuPH20). […] The patients were administered the prescribed dosage formulations as follows: Cohorts 1-5 were administered a single subcutaneous infusion in a dosage volume of 100 ml at a rate of 3 mL/min. […] The dosing solution is administered via needle or catheter into the SC space of the left anterior thigh (midway between the anterior iliac crest and the cephalad border of the patella). For cohorts 1-5, the dosing solutions were administered by a controlled rate infusion pump at approximately 3 mL/minute. […] The dosing solutions were administered by syringe push bolus injection. […] Serum concentration of ZA was determined using a qualified LC-MS-MS assay after derivatization with diazomethane (Zhu, L S et al. (2006) Rapid Commun. […] The assay range was from 2.0 to 400 ng/mL with a lower limit of quantitation (LLOQ) at 2.0 ng/mL. […] Non-compartmental analysis was used for derivation of primary and secondary pharmacokinetic (PK) parameters. […] Summary statistics (mean, standard deviation, and median) were calculated using JMP or Microsoft Excel.
# [1] = ZA 0.5 mg SC infusion + 24000 Units rHuPH20, 24 h post infusion
# [2] = ZA 0.5 mg SC infusion + 24000 Units rHuPH20, 48 h post infusion
# [3] = ZA 1 mg SC infusion + 24000 Units rHuPH20, 48 h post infusion
structure (smiles),measurement,setting,value
"O=P(O)(O)C(O)(Cn1ccnc1)P(=O)(O)O [ZA, 1-hydroxy-2-(1H-imidazol-1-yl)ethylidene-1,1-bisphosphonic acid]",Zoledronic Acid Concentration,"ZA 0.5 mg SC infusion + 24000 Units rHuPH20, 10 min post infusion, listed as Zoledronic Acid",16.80 ng/mL
same,Zoledronic Acid Concentration,"ZA 0.5 mg SC infusion + 24000 Units rHuPH20, 0.5 h post infusion, listed as Zoledronic Acid",16.50 ng/mL
same,Zoledronic Acid Concentration,"ZA 0.5 mg SC infusion + 24000 Units rHuPH20, 1 h post infusion, listed as Zoledronic Acid",15.00 ng/mL
same,Zoledronic Acid Concentration,[1],BLQ < (0.500) ng/mL
same,Mean Conc.,[1],BLQ
same,Median Conc.,[1],BLQ
same,Zoledronic Acid Concentration,[2],BLQ < (0.500) ng/mL
same,Mean Conc.,[2],BLQ
same,Median Conc.,[2],BLQ
same,Zoledronic Acid Concentration,"ZA 1 mg SC infusion + 24000 Units rHuPH20, 0 h post infusion, listed as Zoledronic Acid",15.30 ng/mL
same,Zoledronic Acid Concentration,"ZA 1 mg SC infusion + 24000 Units rHuPH20, 10 min post infusion, listed as Zoledronic Acid",25.00 ng/mL
same,Zoledronic Acid Concentration,"ZA 1 mg SC infusion + 24000 Units rHuPH20, 0.5 h post infusion, listed as Zoledronic Acid",23.00 ng/mL
same,Zoledronic Acid Concentration,"ZA 1 mg SC infusion + 24000 Units rHuPH20, 1 h post infusion, listed as Zoledronic Acid",19.40 ng/mL
same,Zoledronic Acid Concentration,"ZA 1 mg SC infusion + 24000 Units rHuPH20, 2 h post infusion, listed as Zoledronic Acid",17.00 ng/mL
same,Zoledronic Acid Concentration,"ZA 1 mg SC infusion + 24000 Units rHuPH20, 4 h post infusion, listed as Zoledronic Acid",10.20 ng/mL
same,Zoledronic Acid Concentration,"ZA 1 mg SC infusion + 24000 Units rHuPH20, 6 h post infusion, listed as Zoledronic Acid",5.47 ng/mL
same,Zoledronic Acid Concentration,"ZA 1 mg SC infusion + 24000 Units rHuPH20, 8 h post infusion, listed as Zoledronic Acid",3.17 ng/mL
same,Zoledronic Acid Concentration,"ZA 1 mg SC infusion + 24000 Units rHuPH20, 12 h post infusion, listed as Zoledronic Acid",1.30 ng/mL
same,Zoledronic Acid Concentration,"ZA 1 mg SC infusion + 24000 Units rHuPH20, 24 h post infusion, listed as Zoledronic Acid",0.51 ng/mL
same,Zoledronic Acid Concentration,[3],BLQ < (0.500) ng/mL
same,Mean Conc.,[3],BLQ
same,Median Conc.,[3],BLQ
same,Zoledronic Acid Concentration,"ZA 2 mg SC infusion + 24000 Units rHuPH20, 0 h post infusion, listed as Zoledronic Acid",39.60 ng/mL and 40.80 ng/mL
same,Zoledronic Acid Concentration,"ZA 2 mg SC infusion + 24000 Units rHuPH20, 10 min post infusion, listed as Zoledronic Acid",46.30 ng/mL and 46.00 ng/mL
same,Zoledronic Acid Concentration,"ZA 2 mg SC infusion + 24000 Units rHuPH20, 0.5 h post infusion, listed as Zoledronic Acid",47.30 ng/mL and 48.60 ng/mL
same,Zoledronic Acid Concentration,"ZA 2 mg SC infusion + 24000 Units rHuPH20, 1 h post infusion, listed as Zoledronic Acid",53.00 ng/mL and 58.70 ng/mL
same,Zoledronic Acid Concentration,"ZA 2 mg SC infusion + 24000 Units rHuPH20, 2 h post infusion, listed as Zoledronic Acid",40.10 ng/mL and 42.20 ng/mL
same,Zoledronic Acid Concentration,"ZA 2 mg SC infusion + 24000 Units rHuPH20, 4 h post infusion, listed as Zoledronic Acid",20.30 ng/mL and 23.00 ng/mL
same,Zoledronic Acid Concentration,"ZA 2 mg SC infusion + 24000 Units rHuPH20, 6 h post infusion, listed as Zoledronic Acid",7.71 ng/mL and 8.93 ng/mL
same,Zoledronic Acid Concentration,"ZA 2 mg SC infusion + 24000 Units rHuPH20, 8 h post infusion, listed as Zoledronic Acid",3.34 ng/mL and 4.81 ng/mL
same,Zoledronic Acid Concentration,"ZA 2 mg SC infusion + 24000 Units rHuPH20, 12 h post infusion, listed as Zoledronic Acid",1.64 ng/mL and 2.07 ng/mL
same,Zoledronic Acid Concentration,"ZA 2 mg SC infusion + 24000 Units rHuPH20, 24 h post infusion, listed as Zoledronic Acid",0.85 ng/mL and 0.98 ng/mL
same,Zoledronic Acid Concentration,"ZA 2 mg SC infusion + 24000 Units rHuPH20, 48 h post infusion, listed as Zoledronic Acid",BLQ < (0.500) ng/mL
same,Median Conc.,"ZA 2 mg SC infusion + 24000 Units rHuPH20, 48 h post infusion",BLQ
same,Zoledronic Acid Concentration,"ZA 5 mg SC infusion + 24000 Units rHuPH20, 0 h post infusion, listed as Zoledronic Acid",82.30 ng/mL and 53.50 ng/mL and 130.00 ng/mL
same,Zoledronic Acid Concentration,"ZA 5 mg SC infusion + 24000 Units rHuPH20, 10 min post infusion, listed as Zoledronic Acid",76.10 ng/mL and 132.00 ng/mL
same,Zoledronic Acid Concentration,"ZA 5 mg SC infusion + 24000 Units rHuPH20, 0.5 h post infusion, listed as Zoledronic Acid",112.00 ng/mL and 132.00 ng/mL
same,Zoledronic Acid Concentration,"ZA 5 mg SC infusion + 24000 Units rHuPH20, 1 h post infusion, listed as Zoledronic Acid",113.00 ng/mL and 116.00 ng/mL
same,Zoledronic Acid Concentration,"ZA 5 mg SC infusion + 24000 Units rHuPH20, 2 h post infusion, listed as Zoledronic Acid",89.80 ng/mL and 86.50 ng/mL
same,Zoledronic Acid Concentration,"ZA 5 mg SC infusion + 24000 Units rHuPH20, 4 h post infusion, listed as Zoledronic Acid",42.80 ng/mL and 61.70 ng/mL
same,Zoledronic Acid Concentration,"ZA 5 mg SC infusion + 24000 Units rHuPH20, 6 h post infusion, listed as Zoledronic Acid",22.30 ng/mL and 27.80 ng/mL
same,Zoledronic Acid Concentration,"ZA 5 mg SC infusion + 24000 Units rHuPH20, 8 h post infusion, listed as Zoledronic Acid",11.00 ng/mL and 12.50 ng/mL
same,Zoledronic Acid Concentration,"ZA 5 mg SC infusion + 24000 Units rHuPH20, 12 h post infusion, listed as Zoledronic Acid",4.61 ng/mL and 5.00 ng/mL
same,Zoledronic Acid Concentration,"ZA 5 mg SC infusion + 24000 Units rHuPH20, 24 h post infusion, listed as Zoledronic Acid",2.98 ng/mL and 2.23 ng/mL
same,Zoledronic Acid Concentration,"ZA 5 mg SC infusion + 24000 Units rHuPH20, 48 h post infusion, listed as Zoledronic Acid",1.63 ng/mL and 1.74 ng/mL
